Assay results from patent US9994890B1, “Methods of natural product drug discovery” (priority 2012, dated 2018).
Where two headings read alike, the source gives them in different places. Starred links: 1 amine or outer side, 2 acyl side, 3 side chain; linkers in the order of their positions; H or OH if unused. Positions of bridges follow the written chain, without caps; N, C: chain ends. Non-standard residues stand in square brackets, D forms with d. Residues, ends and D or L forms follow the SMILES beside them. Chains are numbered I, II in the order given. Actinocin(9to1) = Cc1c2oc3c(C)ccc(C(=O)[*:1])c3nc-2c(C(=O)[*:2])c(N)c1=O; NMeV = CN[C@H](C(=O)O)C(C)C; Sar = CNCC(=O)O

Legend:
[1] = system: S. aureus strain RN4220; assay: MIC determination, wildtype strain RN4220 (96-well dilution series, Mueller-Hinton broth); type: cell-based, Staphylococcus aureus; conditions: for MIC: Staphylococcus aureus, RN4220
Experimental: (§1) The majority of mutants were obtained by selection of the S. aureus strain RN4220 on agar plates in presence of an antibiotic. Briefly, the minimal inhibitory concentration (“MIC”) of the wildtype strain RN4220 was determined. For this purpose a liquid culture with an OD of 0.5 was added as a dilution of 1:100 in Mueller-Hinton broth to each well of a 96-well plate containing a dilution series of a certain antibiotic. The 96-well plate was incubated at 37° C. overnight. The lowest antibiotic concentration where no growth of bacteria could be determined is defined as the MIC value of this strain.

[2] = system: mutants obtained by selection of the S. aureus strain RN4220; assay: MIC determination, mutants obtained by selection on antibiotic agar; type: cell-based, Staphylococcus aureus; conditions: for MIC of the mutant: Table 1, mutant resistant to the antibiotic of the same line; for MIC: Staphylococcus aureus, read-out: MIC of the mutant
Experimental: as §1
To select first-step mutants agar plates containing an antibiotic concentration of 0.5×-, 1×-, 2×-, 3×- and 5×MIC were prepared and approximately 1×10^8 cells were plated and incubated overnight. Colonies grown on the plate with the highest antibiotic concentration were subcultured in liquid MH-media containing the same concentration of antibiotic to avoid loss of resistance. This culture was used to prepare a 25% glycerol stock that is stored at −80° C. To test the stability of resistance each strain was subcultured again either in presence of an antibiotic or in media without any antibiotics. After that both cultures were plated on agar plates. In case of a stable mutation that leads to the resistance no difference in growth behavior of the liquid culture or the cultures plated on agar plates should be noticed. The MIC of the mutants was determined.
After the successful selection of eight first-step mutants the experiment was repeated in a same manner as described above to obtain mutants having a resistance to much higher concentration of antibiotic. With the exception of the actinomycin D mutant, additional mutants were obtained. Again the MIC-values for the new mutants were determined.

[3] = system: strains NRS106, NRS107, NRS128 and NRS129; assay: MIC determination, mutants purchased from NARSA; type: cell-based, Staphylococcus aureus; conditions: for MIC: Staphylococcus aureus, read-out: MIC of the mutant
Experimental: Four strains from NARSA (Network on Antimicrobial Resistance in Staphylococcus aureus) could be purchased. The strains NRS106, NRS107, NRS128 and NRS129 show resistances against the antibiotics gentamicin, mupirocin, erythromycin and chloramphenicol.
as §1

[4] = system: ten strains of Staphylococcus aureus, each resistant to a different, known, antibiotic; assay: Small scale experiment: panel of ten resistant strains in a microplate; type: cell-based; conditions: Example 1, FIG. 1
Experimental: In a small scale experiment, ten strains of Staphylococcus aureus, each resistant to a different, known, antibiotic, were generated. These strains were added to the wells of a microplate. […] Thus, it was determined that each strain of Staphylococcus aureus was resistant to at least one of ten known antibiotics (FIG. 1).
In this way, it was shown that linezolid was not part of the initial set of ten antibiotics. In other words, the panel of ten Staphylococcus aureus strains used allowed dereplication of the ten antibiotics with no need for analytical chemistry. This experiment establishes that the panel of ten strains can be scaled up to several thousand strains, which will be collectively resistant to as many known antibiotics, and screen sources of unknown compounds (e.g., microbial or eukaryotic cell spent media, cell and tissue extracts, combinatorial libraries, etc.). Using such a large scale screen allows identification of a source containing an antimicrobial activity that is unique from the thousands of known antibiotics, and thus a likely source of a novel antibiotic. Similarly, and using either microbial spent media or individual compounds from chemical libraries, a search can be performed for novel compounds with anticancer, anti-inflammatory, or other desired properties.

[5] = Table 1, 37° C. overnight, read-out: MIC of wildtype RN4220
[6] = Table 2, read-out: MIC of wilcitype RN4220

Cc1c2oc3c(C)ccc(C(=O)N[C@@H]4C(=O)N[C@H](C(C)C)C(=O)N5CCC[C@H]5C(=O)N(C)CC(=O)N(C)[C@@H](C(C)C)C(=O)O[C@@H]4C)c3nc-2c(C(=O)N[C@@H]2C(=O)N[C@H](C(C)C)C(=O)N3CCC[C@H]3C(=O)N(C)CC(=O)N(C)[C@@H](C(C)C)C(=O)O[C@@H]2C)c(N)c1=O [Actinomycin D] (I: T[dV]P[Sar][NMeV] / II: T[dV]P[Sar][NMeV]; ester I:1-I:C, II:1-II:C; linker I:N-II:N via Actinocin(9to1))
MIC of wildtype RN4220 ([1]; Table 1, 37° C. overnight): 1.56 µg/mL | MIC of the mutant [2]: 12.48 µg/mL

CC1(C)S[C@@H]2[C@H](NC(=O)[C@H](N)c3ccccc3)C(=O)N2[C@H]1C(=O)O [Ampicillin]
MIC [1, 5]: 0.2 µg/mL | MIC [2]: 300 µg/mL

O=C(N[C@H](CO)[C@H](O)c1ccc([N+](=O)[O-])cc1)C(Cl)Cl [Chloramphenicol]
MIC [1, 6]: 62.5 µg/mL | MIC [3]: 12.5 µg/mL

CC[C@H]1OC(=O)[C@H](C)[C@@H](O[C@H]2C[C@@](C)(OC)[C@@H](O)[C@H](C)O2)[C@H](C)[C@@H](O[C@@H]2O[C@H](C)C[C@H](N(C)C)[C@H]2O)[C@](C)(O)C[C@@H](C)C(=O)[C@H](C)[C@@H](O)[C@]1(C)O [Erythromycin]
MIC [3]: 0.8 µg/mL

C/C(=C\C(=O)OCCCCCCCCC(=O)O)C[C@@H]1OC[C@H](C[C@@H]2O[C@H]2[C@@H](C)[C@H](C)O)[C@@H](O)[C@H]1O [Mupirocin]
MIC [1, 6]: 500 µg/mL | MIC [3]: 25 µg/mL

CO[C@@H]1[C@@H](OC(N)=O)[C@@H](O)[C@H](Oc2ccc3c(O)c(NC(=O)c4ccc(O)c(CC=C(C)C)c4)c(=O)oc3c2C)OC1(C)C [Novobiocin]
MIC [1, 5]: 0.05 µg/mL | MIC [2]: 12.5 µg/mL

CC1COc2c(N3CCN(C)CC3)c(F)cc3c(=O)c(C(=O)O)cn1c23 (centres unmarked) [Ofloxacin]
MIC [1, 5]: 0.4 µg/mL | MIC [2]: 1.5 µg/mL

CO[C@H]1/C=C/O[C@@]2(C)Oc3c(C)c(O)c4c(O)c(c(/C=N/N5CCN(C)CC5)c(O)c4c3C2=O)NC(=O)/C(C)=C\C=C\[C@H](C)[C@H](O)[C@@H](C)[C@@H](O)[C@@H](C)[C@H](OC(C)=O)[C@@H]1C [Rifampicin]
MIC [1, 5]: 0.008 µg/mL | MIC [2]: 250 µg/mL

[H]/N=C(/N)N[C@H]1[C@H](O)[C@@H](O)[C@H](O[C@@H]2O[C@@H](C)[C@](O)(C=O)[C@H]2O[C@@H]2O[C@@H](CO)[C@H](O)[C@@H](O)[C@@H]2NC)[C@@H](N/C(N)=N\[H])[C@@H]1O [Streptomycin]
MIC [1, 5]: 25 µg/mL

CN(C)[C@@H]1C(=O)C(C(N)=O)=C(O)[C@@]2(O)C(=O)C3=C(O)c4c(O)cccc4[C@@](C)(O)[C@H]3C[C@@H]12 [Tetracyclin]
MIC of wildtype RN4220 ([1]; Table 1, 37° C. overnight): 0.1 µg/mL | MIC of the mutant [2]: 3.9 µg/mL

CN[C@H](CC(C)C)C(=O)N[C@H]1C(=O)N[C@@H](CC(N)=O)C(=O)N[C@H]2C(=O)N[C@H]3C(=O)N[C@H](C(=O)N[C@H](C(=O)O)c4cc(O)cc(O)c4-c4cc3ccc4O)[C@H](O)c3ccc(c(Cl)c3)Oc3cc2cc(c3O[C@@H]2O[C@H](CO)[C@@H](O)[C@H](O)[C@H]2O[C@H]2C[C@](C)(N)[C@H](O)[C@H](C)O2)Oc2ccc(cc2Cl)[C@H]1O [Vancomycin]
MIC [1, 5]: 1.56 µg/mL | MIC [2]: 2000 µg/mL

CC(=O)NC[C@H]1CN(c2ccc(N3CCOCC3)c(F)c2)C(=O)O1 [linezolid]
microbial growth in the wells containing the ten resistant strains [4]: suppressed the growth in all the wells

Gentamicin
MIC of wilcitype RN4220 ([1]; Table 2): 250 µg/mL | MIC of the mutant ([3]; Table 2, NARSA strain named in the same line): 0.8 µg/mL
